Assay results published in publication PMC3095212 (Journal of immunology (Baltimore, Md. : 1950), 2011).
Blank lines part the entries; values can stand above or below the compound they belong to. Residues, ends and D or L forms follow the SMILES beside them.

Columns and labels:
[1] = system: K^b; settings: ref [28]; cited from earlier work
[2] = system: CD8-negative m33 Y48βA T cells; assay: T cell stimulation/antagonism, secreted IL-2; type: cell-based, mouse; settings: 24 h
[3] = system: CD8-negative 2C T cells; assay: T cell stimulation/antagonism, secreted IL-2; type: cell-based, mouse; settings: 24 h
[4] = system: CD8-negative m33 T cells; settings: 24 h

Compound: SIINFEKL [OVA]
half-life of OVA/K^b [1]: 23 h

IC50 [2]: 4.7 ± 0.4 nM | IC50 [3]: 0.44 ± 0.27 nM
Compound: CC(C)C[C@H](NC(=O)[C@H](CC(=O)O)NC(=O)[C@H](Cc1ccccc1)NC(=O)[C@@H]1CCCN1C(=O)[C@H](CCCNC(=N)N)NC(=O)[C@@H]1CCCN1C(=O)[C@H](CO)NC(=O)[C@H](CC(C)C)NC(=O)[C@@H](N)CCC(N)=O)C(=O)O [QL9 F5R] (H-QLSPRPFDL-OH)

IC50 [4]: 0.15 nM
Compound: CC[C@H](C)[C@H](NC(=O)[C@@H](N)CO)C(=O)N[C@@H](Cc1ccc(O)cc1)C(=O)N[C@@H](C)C(=O)N[C@@H](Cc1ccc(O)cc1)C(=O)N[C@@H](Cc1ccc(O)cc1)C(=O)NCC(=O)N[C@@H](CC(C)C)C(=O)O [SIY R4A] (H-SIYAYYGL-OH)
